Experimental data taken from the NIST ThermoML archive (doi:10.1016/j.jct.2011.08.016).
± gives the expanded uncertainty stated by the source.

Test: xn = mol fraction of the nth substance listed
Conditions: Liquid, Vibrating tube method

Molecule `CCCCCCCCCC` [decane] + CCCCCCC has a mass density (323.15 K, 7000 kPa, x2 = 0.0531) of 711.49 ± 0.44 kg/m3, a mass density (323.15 K, 7000 kPa, x2 = 0.2594) of 703.89 ± 0.44 kg/m3 and a mass density (323.15 K, 8000 kPa, x2 = 0.0531) of 712.35 ± 0.44 kg/m3. For the same molecule, the mass density (323.15 K, 8000 kPa, x2 = 0.2594) was 704.79 ± 0.45 kg/m3, the mass density (323.15 K, 9000 kPa, x2 = 0.0531) was 713.2 ± 0.45 kg/m3 and the mass density (323.15 K, 9000 kPa, x2 = 0.2594) was 705.68 ± 0.45 kg/m3. The mass density (323.15 K, 10000 kPa, x2 = 0.0531) was 714.07 ± 0.45 kg/m3, the mass density (323.15 K, 10000 kPa, x2 = 0.2594) was 706.56 ± 0.46 kg/m3 and the mass density (323.15 K, 10990 kPa, x2 = 0.0531) was 714.9 ± 0.46 kg/m3. For the same molecule, the mass density (323.15 K, 10990 kPa, x2 = 0.2594) was 707.43 ± 0.46 kg/m3, the mass density (323.15 K, 12000 kPa, x2 = 0.0531) was 715.73 ± 0.46 kg/m3 and the mass density (323.15 K, 12000 kPa, x2 = 0.2594) was 708.29 ± 0.47 kg/m3. The mass density (323.15 K, 13000 kPa, x2 = 0.0531) was 716.54 ± 0.47 kg/m3, the mass density (323.15 K, 13000 kPa, x2 = 0.2594) was 709.14 ± 0.47 kg/m3 and the mass density (323.15 K, 14000 kPa, x2 = 0.0531) was 717.35 ± 0.47 kg/m3. The mass density (323.15 K, 14000 kPa, x2 = 0.2594) was 709.98 ± 0.48 kg/m3, the mass density (323.15 K, 15000 kPa, x2 = 0.0531) was 718.14 ± 0.48 kg/m3 and the mass density (323.15 K, 15000 kPa, x2 = 0.2594) was 710.81 ± 0.49 kg/m3. The mass density (323.15 K, 16000 kPa, x2 = 0.0531) was 718.92 ± 0.48 kg/m3, the mass density (323.15 K, 16000 kPa, x2 = 0.2594) was 711.62 ± 0.49 kg/m3 and the mass density (323.15 K, 17000 kPa, x2 = 0.0531) was 719.7 ± 0.49 kg/m3. It also gave a mass density (323.15 K, 17000 kPa, x2 = 0.2594) of 712.43 ± 0.5 kg/m3, a mass density (323.15 K, 18000 kPa, x2 = 0.0531) of 720.46 ± 0.5 kg/m3 and a mass density (323.15 K, 18000 kPa, x2 = 0.2594) of 713.25 ± 0.5 kg/m3. The mass density (323.15 K, 19000 kPa, x2 = 0.0531) was 721.21 ± 0.5 kg/m3, the mass density (323.15 K, 19000 kPa, x2 = 0.2594) was 714.01 ± 0.51 kg/m3 and the mass density (323.15 K, 20000 kPa, x2 = 0.0531) was 721.96 ± 0.51 kg/m3. The mass density (323.15 K, 20000 kPa, x2 = 0.2594) was 714.78 ± 0.52 kg/m3, the mass density (323.15 K, 21000 kPa, x2 = 0.0531) was 722.7 ± 0.51 kg/m3 and the mass density (323.15 K, 21000 kPa, x2 = 0.2594) was 715.55 ± 0.52 kg/m3. The mass density (323.15 K, 22000 kPa, x2 = 0.0531) was 723.41 ± 0.52 kg/m3, the mass density (323.15 K, 22000 kPa, x2 = 0.2594) was 716.3 ± 0.53 kg/m3 and the mass density (323.15 K, 23000 kPa, x2 = 0.0531) was 724.12 ± 0.53 kg/m3. The mass density (323.15 K, 23000 kPa, x2 = 0.2594) was 716.98 ± 0.53 kg/m3, the mass density (323.15 K, 24000 kPa, x2 = 0.0531) was 724.82 ± 0.53 kg/m3 and the mass density (323.15 K, 24000 kPa, x2 = 0.2594) was 717.65 ± 0.54 kg/m3. It also gave a mass density (323.15 K, 25000 kPa, x2 = 0.0531) of 725.51 ± 0.54 kg/m3, a mass density (323.15 K, 25000 kPa, x2 = 0.2594) of 718.3 ± 0.55 kg/m3 and a mass density (323.16 K, 1000 kPa, x2 = 0.777) of 673.59 ± 0.43 kg/m3. For the same molecule, the mass density (323.16 K, 2000 kPa, x2 = 0.777) was 674.58 ± 0.43 kg/m3, the mass density (323.16 K, 3000 kPa, x2 = 0.777) was 675.56 ± 0.44 kg/m3 and the mass density (323.16 K, 4000 kPa, x2 = 0.777) was 676.57 ± 0.44 kg/m3. For the same molecule, the mass density (323.16 K, 5000 kPa, x2 = 0.777) was 677.56 ± 0.45 kg/m3, the mass density (323.16 K, 6000 kPa, x2 = 0.777) was 678.57 ± 0.45 kg/m3 and the mass density (323.16 K, 7000 kPa, x2 = 0.777) was 679.58 ± 0.46 kg/m3. For the same molecule, the mass density (323.16 K, 8000 kPa, x2 = 0.777) was 680.57 ± 0.46 kg/m3, the mass density (323.16 K, 9000 kPa, x2 = 0.777) was 681.56 ± 0.47 kg/m3 and the mass density (323.16 K, 10000 kPa, x2 = 0.777) was 682.54 ± 0.48 kg/m3. For the same molecule, the mass density (323.16 K, 10990 kPa, x2 = 0.777) was 683.5 ± 0.48 kg/m3, the mass density (323.16 K, 12000 kPa, x2 = 0.777) was 684.45 ± 0.49 kg/m3 and the mass density (323.16 K, 13000 kPa, x2 = 0.777) was 685.39 ± 0.5 kg/m3. For the same molecule, the mass density (323.16 K, 14000 kPa, x2 = 0.777) was 686.31 ± 0.5 kg/m3, the mass density (323.16 K, 15000 kPa, x2 = 0.777) was 687.21 ± 0.51 kg/m3 and the mass density (323.16 K, 16000 kPa, x2 = 0.777) was 688.1 ± 0.52 kg/m3. It also gave a mass density (323.16 K, 17000 kPa, x2 = 0.777) of 688.99 ± 0.52 kg/m3, a mass density (323.16 K, 18000 kPa, x2 = 0.777) of 689.87 ± 0.53 kg/m3 and a mass density (323.16 K, 19000 kPa, x2 = 0.777) of 690.73 ± 0.54 kg/m3. For the same molecule, the mass density (323.16 K, 20000 kPa, x2 = 0.777) was 691.58 ± 0.54 kg/m3, the mass density (323.16 K, 21000 kPa, x2 = 0.777) was 692.41 ± 0.55 kg/m3 and the mass density (323.16 K, 22000 kPa, x2 = 0.777) was 693.22 ± 0.56 kg/m3. It also gave a mass density (323.16 K, 23000 kPa, x2 = 0.777) of 693.96 ± 0.57 kg/m3, a mass density (323.16 K, 24000 kPa, x2 = 0.777) of 694.7 ± 0.57 kg/m3 and a mass density (323.16 K, 25000 kPa, x2 = 0.777) of 695.42 ± 0.58 kg/m3. The mass density (333.11 K, 1000 kPa, x2 = 0.5219) was 679.05 ± 0.42 kg/m3, the mass density (333.11 K, 2000 kPa, x2 = 0.5219) was 680.06 ± 0.43 kg/m3 and the mass density (333.11 K, 3000 kPa, x2 = 0.5219) was 681.02 ± 0.43 kg/m3. It also gave a mass density (333.11 K, 4000 kPa, x2 = 0.5219) of 682.02 ± 0.44 kg/m3, a mass density (333.11 K, 5000 kPa, x2 = 0.5219) of 683.02 ± 0.44 kg/m3 and a mass density (333.11 K, 6000 kPa, x2 = 0.5219) of 684.02 ± 0.45 kg/m3. The mass density (333.11 K, 7000 kPa, x2 = 0.5219) was 685.02 ± 0.45 kg/m3, the mass density (333.11 K, 8000 kPa, x2 = 0.5219) was 686.03 ± 0.46 kg/m3 and the mass density (333.11 K, 9000 kPa, x2 = 0.5219) was 687.04 ± 0.46 kg/m3. It also gave a mass density (333.11 K, 10000 kPa, x2 = 0.5219) of 688.03 ± 0.47 kg/m3, a mass density (333.11 K, 10990 kPa, x2 = 0.5219) of 689.01 ± 0.48 kg/m3 and a mass density (333.11 K, 12000 kPa, x2 = 0.5219) of 689.97 ± 0.48 kg/m3. It also gave a mass density (333.11 K, 13000 kPa, x2 = 0.5219) of 690.92 ± 0.49 kg/m3, a mass density (333.11 K, 14000 kPa, x2 = 0.5219) of 691.85 ± 0.49 kg/m3 and a mass density (333.11 K, 15000 kPa, x2 = 0.5219) of 692.77 ± 0.5 kg/m3. It also gave a mass density (333.11 K, 16000 kPa, x2 = 0.5219) of 693.68 ± 0.51 kg/m3, a mass density (333.11 K, 17000 kPa, x2 = 0.5219) of 694.58 ± 0.51 kg/m3 and a mass density (333.11 K, 18000 kPa, x2 = 0.5219) of 695.49 ± 0.52 kg/m3. For the same molecule, the mass density (333.11 K, 19000 kPa, x2 = 0.5219) was 696.33 ± 0.53 kg/m3, the mass density (333.11 K, 20000 kPa, x2 = 0.5219) was 697.15 ± 0.53 kg/m3 and the mass density (333.11 K, 21000 kPa, x2 = 0.5219) was 697.97 ± 0.54 kg/m3. For the same molecule, the mass density (333.11 K, 22000 kPa, x2 = 0.5219) was 698.76 ± 0.55 kg/m3, the mass density (333.11 K, 23000 kPa, x2 = 0.5219) was 699.54 ± 0.55 kg/m3 and the mass density (333.11 K, 24000 kPa, x2 = 0.5219) was 700.3 ± 0.56 kg/m3. It also gave a mass density (333.11 K, 25000 kPa, x2 = 0.5219) of 701.04 ± 0.57 kg/m3, a mass density (333.12 K, 1000 kPa, x2 = 0.0531) of 698.2 ± 0.41 kg/m3 and a mass density (333.12 K, 1000 kPa, x2 = 0.777) of 665.15 ± 0.43 kg/m3. The mass density (333.12 K, 2000 kPa, x2 = 0.0531) was 699.22 ± 0.42 kg/m3, the mass density (333.12 K, 2000 kPa, x2 = 0.777) was 666.23 ± 0.43 kg/m3 and the mass density (333.12 K, 3000 kPa, x2 = 0.0531) was 700.22 ± 0.42 kg/m3. The mass density (333.12 K, 3000 kPa, x2 = 0.777) was 667.33 ± 0.44 kg/m3.
